# Where two headings read alike, the source gives them in different places.
# Legend:
# P. mirabilis = test: Expanded panel broth microdilution MIC; format: cell-based; details: Proteus mirabilis, ATCC43071
# [1] = format: physicochemical; details: pH 8
# Experimental: (§1) 40 to the primary metabolite.
# (§2) 41 percent degradation is defined as follows:
# (§3) [LLLLPPLL ] + [MMPPPPDDMM DDMMDDPPPP ]
# (§4) 45 Enzymes studied include :
# (§5) 108 Table S1: Enzyme hydrolysis of RV62 and RV94 was measured as a function of time in PBS (pH 8) at 37
# (§6) 109 °C. Control samples in the absence of enzyme were included as […]. Samples were analyzed
# (§7) 110 by HPLC detecting the parent RV derivative (RV62 or RV94).
# (§8) RV Percent RV derivative remaining in HPLC chromatograph, % […]
# THP-1 cells = test: In vitro cellular accumulation; format: cell-based; details: 24 h, 10 to 75 μg/ml
# Experimental: THP-1 cells (TIB-202; ATCC, Manassas, VA; 1 × 10^6 cells/well) were differentiated into macrophages by incubating in 10% fetal bovine serum (FBS; HyClone, Marlborough, MA) supplemented RPMI 1640 medium (HyClone) with 50 ng/ml of phorbol 12-myristate 13-acetate (PMA; Sigma-Aldrich, St. Louis, MO) for 24 h. After a 24 h incubation in fresh medium, cells were treated with RV lipoglycopeptides or comparator drugs at target concentrations in the range of 10 to 75 μg/ml and incubated at 37°C for 24 h. For sample collection, mixtures of cells and medium were transferred into a 1.5-ml microcentrifuge tube followed by centrifugation at 330 × g for 8 min at 4°C. The supernatant was collected to measure the extracellular portion. After washing three times using 1 ml of tris-buffered saline (TBS, 1× solution, pH 7.4, Fisher BioReagents, Waltham, MA), the cell pellet was resuspended in TBS to measure the cellular drug concentration. To confirm mass balance, drug concentrations were also measured from the supernatant and an organic solvent mixture (30% acetonitrile in water) that was used to extract residual drug from the empty wells after the cell mixture was removed. […] Cellular accumulation was expressed as μg of drug per the mass of cell protein measured using a Pierce BCA protein assay kit (Thermo Scientific, Waltham, MA).
# Protease from Papain = biological target: T1, Protease from Papain (Carica papaya, UniProt P00784); test: Enzyme hydrolysis; format: in vitro ADME; details: Papain 5 U/mL
# T1 construct: purchased Sigma Aldrich P4762; host or cells: papaya latex
# Experimental: as §1, §2, §3, §4, §5, §6, §7, §8
# [2] = biological target: T2, Protease from Bacillus Lichenformis (Bacillus licheniformis, UniProt P00780); test: Enzyme hydrolysis; format: in vitro ADME; details: Bacillus Lichenformis protease 5 U/mL
# T2 construct: purchased Sigma Aldrich P5380; host or cells: Bacillus licheniformis
# Experimental: as §1, §2, §3, §4, §5, §6, §7, §8
# T2 sequence (P00780 106-379): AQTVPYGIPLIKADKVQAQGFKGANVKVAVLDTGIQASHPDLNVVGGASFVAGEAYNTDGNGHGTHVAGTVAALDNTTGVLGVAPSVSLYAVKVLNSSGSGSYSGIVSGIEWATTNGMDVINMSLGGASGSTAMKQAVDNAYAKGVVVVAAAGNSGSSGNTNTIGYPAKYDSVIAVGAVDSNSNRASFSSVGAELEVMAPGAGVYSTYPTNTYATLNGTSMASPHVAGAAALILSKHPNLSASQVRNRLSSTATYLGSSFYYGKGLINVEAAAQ
# T1 sequence (P00784 134-345): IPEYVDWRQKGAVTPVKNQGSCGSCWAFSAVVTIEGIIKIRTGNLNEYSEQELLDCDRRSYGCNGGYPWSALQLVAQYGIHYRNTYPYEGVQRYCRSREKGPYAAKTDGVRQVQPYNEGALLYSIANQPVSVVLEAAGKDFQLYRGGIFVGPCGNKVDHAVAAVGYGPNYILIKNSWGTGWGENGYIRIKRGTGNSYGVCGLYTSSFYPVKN
compound,measurement,setting,value
"CCCCCCCCCCNCCN[C@@]1(C)C[C@H](O[C@H]2[C@H](Oc3c4cc5cc3Oc3ccc(cc3Cl)[C@@H](O)[C@@H](NC(=O)[C@@H](CC(C)C)NC)C(=O)N[C@@H](CC(N)=O)C(=O)N[C@H]5C(=O)N[C@H]3C(=O)N[C@H](C(=O)N[C@H](C(=O)O)c5cc(O)cc(O)c5-c5cc3ccc5O)[C@H](O)c3ccc(c(Cl)c3)O4)O[C@H](CO)[C@@H](O)[C@@H]2O)O[C@@H](C)[C@H]1O [RV40, N-decylaminoethylvancomycin]",MIC,"P. mirabilis; P. mirabilis ATCC 43071, read-out: MIC",> 64 µg/mL
"CN[C@H](CC(C)C)C(=O)N[C@H]1C(=O)N[C@@H](CC(N)=O)C(=O)N[C@H]2C(=O)N[C@H]3C(=O)N[C@H](C(=O)N[C@H](C(=O)O)c4cc(O)cc(O)c4-c4cc3ccc4O)[C@H](O)c3ccc(c(Cl)c3)Oc3cc2cc(c3O[C@@H]2O[C@H](CO)[C@@H](O)[C@H](O)[C@H]2O[C@H]2C[C@](C)(N)[C@H](O)[C@H](C)O2)Oc2ccc(cc2Cl)[C@H]1O [Vancomycin, vancomycin]",MIC,P. mirabilis,> 64 µg/mL
CCCCCCCCCCNC(=O)CNC1(C)CC(OC2C(Oc3c4cc5cc3Oc3ccc(cc3Cl)C(O)C3NC(=O)C(NC(=O)C5NC(=O)C(CC(N)=O)NC(=O)C(NC(=O)C(CC(C)C)NC)C(O)c5ccc(c(Cl)c5)O4)c4ccc(O)c(c4)-c4c(O)cc(O)cc4C(C(=O)O)NC3=O)OC(CO)C(O)C2O)OC(C)C1O (stereo not shown) [RV94],Percent RV derivative remaining in HPLC chromatograph,[1]; 0 h,99.74%
same,Percent RV derivative remaining in HPLC chromatograph,[1]; 1 h,99.54%
same,Percent RV derivative remaining in HPLC chromatograph,[1]; 24 h,98.89%
same,"Cellular accumulation, fold improvement over telavancin",THP-1 cells,4 fold
same,"Cellular accumulation, fold improvement over vancomycin",THP-1 cells,2 fold
same,Percent RV derivative remaining in HPLC chromatograph,Protease from Papain; 1 h,99.39%
same,Percent RV derivative remaining in HPLC chromatograph,Protease from Papain; 24 h,98.31%
same,Percent RV derivative remaining in HPLC chromatograph,"Protease from Papain; PBS pH 8, 37 °C, 0 h",99.46%
same,Percent RV derivative remaining in HPLC chromatograph,[2]; 1 h,99.47%
same,Percent RV derivative remaining in HPLC chromatograph,[2]; 24 h,99.43%
same,Percent RV derivative remaining in HPLC chromatograph,"[2]; PBS pH 8, 37 °C, 0 h",99.76%
